From BigSolDB 2.1

N#Cc1ccc2c(c1)OCO2
solubility (mole fraction)
Settings	278.15 K	283.15 K	288.15 K	293.15 K	298.15 K	303.15 K	308.15 K	313.15 K	318.15 K	323.15 K
in 1,4-dioxane	–	–	0.174	0.197	0.221	0.256	0.283	0.325	0.358	0.406
in 2-methoxyethanol	0.0495	0.0606	0.0722	0.0849	0.101	0.119	0.137	0.16	0.192	0.221
in DMF	0.172	0.193	0.212	0.239	0.264	0.293	0.32	0.36	0.39	0.433
in acetone	0.101	0.118	0.136	0.158	0.181	0.207	0.237	0.269	0.307	0.349
in acetonitrile	0.0673	0.0811	0.0999	0.12	0.143	0.173	0.203	0.243	0.283	0.33
in ethanol	0.00686	0.00878	0.0111	0.0133	0.0166	0.0214	0.0266	0.034	0.0435	0.0548
in ethyl acetate	0.0892	0.102	0.118	0.14	0.166	0.187	0.217	0.247	0.282	0.322
in isopropanol	0.00473	0.00606	0.00772	0.00933	0.0127	0.0168	0.0202	0.0268	0.0338	0.0445
in isopropyl acetate	0.0657	0.0784	0.0948	0.112	0.13	0.155	0.179	0.211	0.243	0.277
in methanol	0.00823	0.0104	0.0123	0.0157	0.0192	0.024	0.031	0.0387	0.0495	0.0617
in methyl acetate	0.102	0.118	0.137	0.16	0.184	0.21	0.24	0.274	0.31	0.353
in n-propanol	0.00603	0.00758	0.00949	0.0122	0.0159	0.02	0.0255	0.0329	0.0433	0.0573
in n-propyl acetate	0.0785	0.0928	0.113	0.128	0.149	0.176	0.204	0.235	0.27	0.31
